Source: patent publication US8765733B2, “Amine substituted methanesulfonamide derivatives as vanilloid receptor ligands” (Gruenenthal GmbH, priority 2011, dated 2014)

Molecular target: vanilloid receptor 1 (VR1/TRPV1 receptor) (Homo sapiens, UniProt Q8NER1)
Assay: FLIPR functional assay (Ca2+ influx, capsaicin) on the vanilloid receptor 1
Format: cell-based
Settings: capsaicin (Cap) stimulus, compound at 5 μM

| Compound | inhibition at 5 µM (read-out: inhibition (as a percentage) Cap, (human being)) [%] | inhibition (as a percentage) Cap, (human being) [%@5 μM] |
| --- | --- | --- |
| CC1CCN(c2nc(C(F)(F)F)ccc2CNC(=O)C(C)c2ccc(F)c(CNS(C)(=O)=O)c2)CC1 (centres unmarked) [Example 66, 2-(4-fluoro-3-(methylsulfonamidomethyl)phenyl)-N-((2-(4-methylpiperidin-1-yl)-6-(trifluoromethyl)pyridin-3-yl)methyl)propanamide] | 58 | – |
| N-(2-fluoro-5-(3-((2-(4-methylpiperidin-1-yl)-6-(trifluoromethyl)pyridin-3-yl)methyl)ureido)benzyl)methanesulfonamide [Example 65] | – | 12 |
